The subject of assay [1] is Active fraction 2 (purine nucleosidase activity). The assay is described as follows: Purine nucleosidase activity of active fraction 2 (1st DEAE-Sephacel). Format: biochemical, Ochrobactrum anthropi.
The subject of assay [2] is Active fraction 1 (purine nucleosidase activity). The assay is described as follows: Purine nucleosidase activity of active fraction 1 (1st DEAE-Sephacel). Format: biochemical, Ochrobactrum anthropi. As for the experimental part: After suspending 20 g of the wet cells in 40 ml of 10 mM Tris-HCl buffer solution (pH 7.4) (hereunder referred to as "buffer"), they were disrupted in a Dynamill at 4° C. for 10 minutes. After filtering the disrupted cell suspension it was centrifuged (10,000 rpm, 60 min) and the supernatant was used as a cell-free extract. The cell-free extract (250 ml) was dialyzed for 12 hours against 5 L of buffer and then applied to a DEAE-Sephacel column (3×30 cm, 200 ml) which had been equilibrized with the buffer. The adsorbed protein was eluted with an NaCl concentration gradient from 0 to 1.0 M and the active fractions were recovered.
The purine nucleosidase activity at this time was split into two peaks (FIG. 1). Fraction nos. 46 to 69 were collected as the first active fraction and fraction nos. 85 to 101 were collected as the second active fraction.
(§1) The reaction solution (200 μl) contained 0.5 mM of adenosine or inosine or 0.25 mM of guanosine as the substrate, 50 mM of acetate buffer at pH 4.5 and a sufficient amount of enzyme. The reaction was initiated by addition of the enzyme, and the reaction was conducted at 50° C. for 5 minutes. The reaction was terminated by addition of 20 μl of 15% perchloric acid, and after centrifugation (35,000 rpm, 10 min) the supernatant was analyzed qualitatively by thin-layer chromatography (TLC) and quantitatively by high-performance liquid chromatography. The analysis methods were as follows.

Assay [3] concerns purine nucleosidase. The assay is described as follows: Specific activity, Km and Vmax of purine nucleosidase. Format: biochemical, Ochrobactrum anthropi. Conditions: pH 4.5; for Km / Vmax: 30° C.; for Specific activity: 50° C. The protocol:
as §1
(2) High-performance liquid chromatography
Eluent: 0.1 M sodium chlorate tetrahydrate, 0.1% (v/v) phosphoric acid
(§2) The specific activity was measured under conditions of 50° C., pH 4.5. The Km and Vmax were measured under conditions of 30° C., pH 4.5. The relative activity was expressed according to the following measurement method.

The subject of assay [4] is purine nucleosidase. The assay is described as follows: Substrate specificity of purine nucleosidase by thin-layer chromatography. The format is biochemical, Ochrobactrum anthropi. Conditions: for decomposition of purine nucleosides (in words): pH 5.5 and 60° C.; for Relative activity: thin-layer chromatography. As for the experimental part: as §1
(1) Thin-layer chromatography
Plate: Kieselgel 60F254 (Merk)
Developing solution: n-butanol/isopropanol/H2 O/NH4 OH=1:7:2:0.2 (v/v/v/v) (for adenosine and guanosine substrates), n-butanol/acetic acid/H2 O=5:1:1 (v/v/v) (for inosine substrate)
The substrate specificity of the purine nucleosidase was determined by thin-layer chromatography (TLC).
as §2

In assay [5] the test system is Bacillus cereus nucleosidase. Nature of the assay: Bacillus cereus nucleosidase, cell extracts. Conditions: studies by the present inventors. The format is biochemical. The text has this:
Based on studies by the present inventors using cell extracts, the activity against guanosine is low. Crithidia fasciculata nucleosidase has a high optimum pH of 8.5. Wort also contains various low molecular substances, sugars and proteins, and it has not yet been investigated whether known nucleosidases can actually act on them. Therefore, we screened natural sources for microorganism-derived purine nucleosidases which can utilize adenosine, inosine and guanosine as substrates under conditions of pH 5.0 to 5.5, 50 to 80° C. As a result, high purine nucleosidase activity was found in crushed cell solutions of Ochrobactrum anthropi.

The test system of assay [6] is Aspergillus niger nucleosidase. Conditions: cited from earlier work.

As a reminder, the Km is the substrate concentration at which the rate is half of its maximum. As usually defined, the Vmax is the top rate of the reaction or transport when substrate is in excess. Take `Nc1ncnc2c1ncn2[C@@H]1O[C@H](CO)[C@@H](O)[C@H]1O` [adenosine]: in assay [1] (30° C.), the “Specific activity, Active fraction 2” value stood at 0.59 µmol/min/mg. The “Specific activity, Active fraction 2” value in assay [1] (50° C.) was found to be 0.45 µmol/min/mg. In assay [2] (30° C.), the “Specific activity, Active fraction 1” value stood at 0.70 µmol/min/mg. In addition, the “Specific activity, Active fraction 1” value in assay [2] (50° C.) turned out to be 3.6 µmol/min/mg. Also, in the assay on purine nucleosidase [3], the Km stood at 17.1 µM, the Vmax turned out to be 28.5 µmol/min/mg and the Specific activity is 292 µmol/min/mg. Moreover, in the assay with purine nucleosidase [4], the “decomposition of purine nucleosides (in words)” value is on record as “capable of decomposing” and the Relative activity result is “++++ (>50%)”.

`Nc1nc2c(ncn2[C@@H]2O[C@H](CO)[C@@H](O)[C@H]2O)c(=O)[nH]1` [guanosine]: the “Specific activity, Active fraction 2” value in assay [1] (30° C.) is 0.33 µmol/min/mg. Besides, the “Specific activity, Active fraction 2” value in assay [1] (50° C.) came to 0.26 µmol/min/mg. Further, the “activity against substrate (in words)” value in assay [5] is reported as “low”. Also, in assay [2] (30° C.), the “Specific activity, Active fraction 1” value was 0.44 µmol/min/mg. Also, in assay [2] (50° C.), the “Specific activity, Active fraction 1” value stood at 1.5 µmol/min/mg. In the assay with purine nucleosidase [3], the Km turned out to be 53.9 µM, the Vmax was found to be 11.5 µmol/min/mg and the Specific activity turned out to be 63.3 µmol/min/mg. In addition, in the assay with purine nucleosidase [4], the “decomposition of purine nucleosides (in words)” value is “capable of decomposing” and the Relative activity result is on record as “++++ (>50%)”.

As to `O=c1[nH]c(=O)c2ncn([C@@H]3O[C@H](CO)[C@@H](O)[C@H]3O)c2[nH]1` [xanthosine], in assay [6], the “decomposition of substrate (in words)” value is “cannot decompose”. In addition, in the assay with purine nucleosidase [3], the Km was 63.8 µM and the Vmax was 68 µmol/min/mg. In addition, in the assay with purine nucleosidase [4], the “decomposition of purine nucleosides (in words)” value is “capable of decomposing” and the Relative activity result was “++++ (>50%)”.

Consider `OC[C@H]1O[C@@H](n2cnc3c(O)ncnc32)[C@H](O)[C@@H]1O` [inosine], for which, in assay [1] (30° C.), the “Specific activity, Active fraction 2” value turned out to be 0.63 µmol/min/mg. Besides, in assay [1] (50° C.), the “Specific activity, Active fraction 2” value came out at 0.44 µmol/min/mg. In addition, the “Specific activity, Active fraction 1” value in assay [2] (30° C.) came to 1.02 µmol/min/mg. Also, the “Specific activity, Active fraction 1” value in assay [2] (50° C.) is 4.3 µmol/min/mg. Also, in the assay on purine nucleosidase [3], the Km was found to be 29.6 µM, the Vmax is 18.8 µmol/min/mg and the Specific activity is 177 µmol/min/mg. Besides, in the assay with purine nucleosidase [4], the “decomposition of purine nucleosides (in words)” value is “capable of decomposing” and the Relative activity result is on record as “++++ (>50%)”.
